From patent US8940754B2, “10′-fluorinated Vinca alkaloids provide enhanced biological activity against MDR cancer cells” (priority 2010, dated 2015) come the findings set out here.

Read-outs that look alike come from different tables or passages of the source.

For one data set, the system named is HCT116. Nature of the data set: cells. In kind it is cell-based, human.
The subject of another data set is L1210. Nature of the data set: cells. Format: cell-based, mouse.
In a further data set the test system is HCT116/VM46. Nature of the data set: cells. In kind it is cell-based, human.
The test system of data set [1] is L1210, HCT116, HCT116/VM46. Nature of the data set: cytotoxic activity in the cell-based assays, overall comparison with the parent compound. The settings on record: for fold more potent than the natural products themselves: vs vinblastine / vincristine, Table 2C; for enhancement of cytotoxic activity by C-10′ fluorine substitution: vs natural product without fluorine.

[2] abbreviates: Homo sapiens, HCT-116; Table 2B, C10′-substituted vinblastines, single evaluations; read-out: IC50 (nM) HCT116.
[3] abbreviates: Mus musculus, L1210; Table 2B, C10′-substituted vinblastines, single evaluations; read-out: IC50 (nM) L1210.
[4] abbreviates: Homo sapiens, HCT-116/VM46; Table 2B, C10′-substituted vinblastines, single evaluations; read-out: IC50 (nM) HCT116/VM46.
Where [5] appears, read: Homo sapiens, HCT-116; Table 2A, C10′-substituted anhydrovinblastines, single evaluations; read-out: IC50 (nM) HCT116.
Where [6] appears, read: Mus musculus, L1210; Table 2A, C10′-substituted anhydrovinblastines, single evaluations; read-out: IC50 (nM) L1210.
Where [7] appears, read: Homo sapiens, HCT-116/VM46; Table 2A, C10′-substituted anhydrovinblastines, single evaluations; read-out: IC50 (nM) HCT116/VM46.

As for `CC[C@]1(O)C[C@@H]2CN(CCc3c([nH]c4ccc(F)cc34)[C@@](C(=O)OC)(c3cc4c(cc3OC)N(C=O)C3C(O)(C(=O)OC)[C@H](OC(C)=O)[C@]5(CC)C=CCN6CC[C@]43[C@@H]65)C2)C1` (some centres unmarked) [Compound 28, 10′-fluorovincristine], the IC50 came out at 1 nM in the data set on HCT116 (Homo sapiens, HCT-116; Table 2C, side-by-side, multiple examinations with several independent samples; read-out: IC50 (nM) HCT116); 0.7 nM with L1210 (Mus musculus, L1210; Table 2C, side-by-side, multiple examinations with several independent samples; read-out: IC50 (nM) L1210); 90 nM with HCT116/VM46 (Homo sapiens, HCT-116/VM46; Table 2C, side-by-side, multiple examinations with several independent samples; read-out: IC50 (nM) HCT116/VM46). In data set [1], the “fold more potent than the natural products themselves” value is recorded as “about 8 fold”.

With `CC[C@]1(O)C[C@@H]2CN(CCc3c([nH]c4ccc(F)cc34)[C@@](C(=O)OC)(c3cc4c(cc3OC)N(C)C3C(O)(C(=O)OC)[C@H](OC(C)=O)[C@]5(CC)C=CCN6CC[C@]43[C@@H]65)C2)C1` (some centres unmarked) [Compound 19b, 10′-fluorovinblastine], the IC50 with HCT116 (setting [2]) was 0.9 nM; in the data set with L1210 (setting [3]) it was 0.7 nM; with HCT116/VM46 (setting [4]) it was 80 nM. Also, in the data set with HCT116/VM46 (vs vinblastine), the “increased activity against vinblastine resistant cell line (HCT116/VM46)” value was “about 8 fold”. The “enhancement of cytotoxic activity by C-10′ fluorine substitution” value in data set [1] is reported as “about 8 fold”. Moreover, the “fold more potent than the natural products themselves” value in data set [1] was “about 8 fold”.

Turning to `CC[C@]1(O)C[C@@H]2CN(CCc3c([nH]c4ccccc34)[C@@](CO)(c3cc4c(cc3OC)N(C)C3C(O)(C(=O)OC)[C@H](OC(C)=O)[C@]5(CC)C=CCN6CC[C@]43[C@@H]65)C2)C1` (some centres unmarked) [Compound 11b], the IC50 with HCT116 (Homo sapiens, HCT-116; read-out: IC50 (nM) HCT116) was 5800 nM; in the data set on L1210 (Mus musculus, L1210; read-out: IC50 (nM) L1210) it was 6500 nM; in the data set with HCT116/VM46 (Homo sapiens, HCT-116/VM46; read-out: IC50 (nM) HCT116/VM46), greater than 10000 nM.

Turning to `CCC1=C[C@@H]2CN(CCc3c([nH]c4ccc(F)cc34)[C@@](C(=O)OC)(c3cc4c(cc3OC)N(C)C3C(O)(C(=O)OC)[C@H](OC(C)=O)[C@]5(CC)C=CCN6CC[C@]43[C@@H]65)C2)C1` (some centres unmarked) [Compound 19a, 10′-fluoroanhydrovinblastine], the IC50 in the data set with HCT116 (Homo sapiens, HCT-116, read-out: IC50 (nM) HCT116) is 50 nM; with L1210 (Mus musculus, L1210, read-out: IC50 (nM) L1210) it was 30 nM; in the data set with HCT116/VM46 (Homo sapiens, HCT-116/VM46, read-out: IC50 (nM) HCT116/VM46), 290 nM. Further, the “enhancement of cytotoxic activity by C-10′ fluorine substitution” value in data set [1] is “about 8 fold”.

For the compound `CC[C@]1(O)C[C@@H]2CN(CCc3c([nH]c4ccc(Br)cc34)[C@@](C(=O)OC)(c3cc4c(cc3OC)N(C)C3C(O)(C(=O)OC)[C@H](OC(C)=O)[C@]5(CC)C=CCN6CC[C@]43[C@@H]65)C2)C1` (some centres unmarked) [Compound 17b, 10′-bromo-vinblastine], the IC50 amounted to 8.6 nM in the data set with HCT116 (setting [2]), 8 nM in the data set on L1210 (setting [3]) and 270 nM in the data set on HCT116/VM46 (setting [4]).

As for `CCC1=C[C@@H]2CN(CCc3c([nH]c4ccc(C)cc34)[C@@](C(=O)OC)(c3cc4c(cc3OC)N(C)C3C(O)(C(=O)OC)[C@H](OC(C)=O)[C@]5(CC)C=CCN6CC[C@]43[C@@H]65)C2)C1` (some centres unmarked) [Compound 21a, 10′-methylanhydrovinblastine], the IC50 with HCT116 (setting [5]) stood at 65 nM; in the data set with L1210 (setting [6]) it was 65 nM; with HCT116/VM46 (setting [7]) it was 640 nM.

For `CC[C@]1(O)C[C@H]2CN(CCc3c([nH]c4ccccc34)[C@@](C(=O)OC)(c3cc4c(cc3OC)N(C=O)[C@H]3[C@@](O)(C(=O)OC)[C@H](OC(C)=O)[C@]5(CC)C=CCN6CC[C@]43[C@@H]65)C2)C1` [Compound 2, Vincristine, reference compound], the IC50 was found to be 7 nM with HCT116 (Table 2C, side-by-side, multiple examinations with several independent samples; read-out: IC50 (nM) HCT116); 6 nM with L1210 (Table 2C, side-by-side, multiple examinations with several independent samples; read-out: IC50 (nM) L1210); 700 nM in the data set with HCT116/VM46 (Table 2C, side-by-side, multiple examinations with several independent samples; read-out: IC50 (nM) HCT116/VM46).

As to `CCC1=C[C@@H]2CN(CCc3c([nH]c4ccc(SC)cc34)[C@@](C(=O)OC)(c3cc4c(cc3OC)N(C)C3C(O)(C(=O)OC)[C@H](OC(C)=O)[C@]5(CC)C=CCN6CC[C@]43[C@@H]65)C2)C1` (some centres unmarked) [Compound 20a, 10′-thiomethylanhydrovinblastine], the IC50 with HCT116 (setting [5]) was 85 nM; with L1210 (setting [6]) it was 60 nM; with HCT116/VM46 (setting [7]), 770 nM.
